Experiments:
[1] = Cytotoxicity against human THP-1 cells assessed as reduction in cell viability incubated for 72 hrs by MTT assay; assay type: toxicity, cell-based
CYP3A4 = CYP3A4 (Homo sapiens, UniProt P08684); assay: Inhibition of human CYP3A4 expressed in insect cell microsomes at 10 uM preincubated for 20 mins followed by NADP+ and substrate addition and measured after 10 mins by fluorescence based analysis; assay type: ADME, Microsome; settings: recombinant human CYP3A4 expressed in insect cell microsomes, time 30 min
CYP3A4, sequence (P08684 whole entry): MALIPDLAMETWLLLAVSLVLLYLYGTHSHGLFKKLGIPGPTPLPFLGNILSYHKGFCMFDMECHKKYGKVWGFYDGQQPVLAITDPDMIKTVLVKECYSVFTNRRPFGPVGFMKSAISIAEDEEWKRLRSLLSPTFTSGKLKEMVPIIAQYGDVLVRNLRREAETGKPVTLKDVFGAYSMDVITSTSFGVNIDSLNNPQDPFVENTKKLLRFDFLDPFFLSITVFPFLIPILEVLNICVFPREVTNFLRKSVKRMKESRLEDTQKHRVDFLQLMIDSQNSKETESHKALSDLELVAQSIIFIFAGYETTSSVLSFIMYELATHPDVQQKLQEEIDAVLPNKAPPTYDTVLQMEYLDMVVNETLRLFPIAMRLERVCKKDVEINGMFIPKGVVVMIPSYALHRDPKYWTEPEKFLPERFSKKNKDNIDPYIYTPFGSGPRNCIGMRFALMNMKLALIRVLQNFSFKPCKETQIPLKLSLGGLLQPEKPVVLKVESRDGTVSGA

[2] = Selectivity index, ratio of CC50 for cytotoxicity against human THP-1 cells to IC50 for anti-trypanosomal activity against trypomastigote blood stage of Trypanosoma brucei Lister 427; assay type: toxicity, cell-based; settings: read-out: Ratio CC50/IC50
[3] = Cytotoxicity against human A549 cells assessed as reduction in cell viability at 10 uM incubated for 24 hrs by Cell-Titer Glo luminescence assay; assay type: toxicity, cell-based; settings: read-out: INH
Trypanosoma brucei = assay: Anti-trypanosomal activity against trypomastigote blood stage of Trypanosoma brucei Lister 427 assessed as inhibition of parasite growth incubated for 72 hrs by resazurin-dye based assay; assay type: functional, organism-based; settings: Lister 427, 72 h
Leishmania infantum [4] = assay: Anti-leishmanial activity against promastigote stage of Leishmania infantum MHOM/MA/67/ITMAP-263 assessed as inhibition of parasite growth at 10 uM incubated for 72 hrs by resazurin-dye based assay; assay type: functional
hERG (KCNH2) = hERG (KCNH2) (Homo sapiens, UniProt Q12809); assay: Displacement of tracer from hERG extracted from membrane at 10 uM incubated for 2 hrs by fluorescence polarization assay; assay type: toxicity, cell membranes; settings: hERG membrane preparation, probe tracer (not named)
hERG (KCNH2), sequence (Q12809 whole entry): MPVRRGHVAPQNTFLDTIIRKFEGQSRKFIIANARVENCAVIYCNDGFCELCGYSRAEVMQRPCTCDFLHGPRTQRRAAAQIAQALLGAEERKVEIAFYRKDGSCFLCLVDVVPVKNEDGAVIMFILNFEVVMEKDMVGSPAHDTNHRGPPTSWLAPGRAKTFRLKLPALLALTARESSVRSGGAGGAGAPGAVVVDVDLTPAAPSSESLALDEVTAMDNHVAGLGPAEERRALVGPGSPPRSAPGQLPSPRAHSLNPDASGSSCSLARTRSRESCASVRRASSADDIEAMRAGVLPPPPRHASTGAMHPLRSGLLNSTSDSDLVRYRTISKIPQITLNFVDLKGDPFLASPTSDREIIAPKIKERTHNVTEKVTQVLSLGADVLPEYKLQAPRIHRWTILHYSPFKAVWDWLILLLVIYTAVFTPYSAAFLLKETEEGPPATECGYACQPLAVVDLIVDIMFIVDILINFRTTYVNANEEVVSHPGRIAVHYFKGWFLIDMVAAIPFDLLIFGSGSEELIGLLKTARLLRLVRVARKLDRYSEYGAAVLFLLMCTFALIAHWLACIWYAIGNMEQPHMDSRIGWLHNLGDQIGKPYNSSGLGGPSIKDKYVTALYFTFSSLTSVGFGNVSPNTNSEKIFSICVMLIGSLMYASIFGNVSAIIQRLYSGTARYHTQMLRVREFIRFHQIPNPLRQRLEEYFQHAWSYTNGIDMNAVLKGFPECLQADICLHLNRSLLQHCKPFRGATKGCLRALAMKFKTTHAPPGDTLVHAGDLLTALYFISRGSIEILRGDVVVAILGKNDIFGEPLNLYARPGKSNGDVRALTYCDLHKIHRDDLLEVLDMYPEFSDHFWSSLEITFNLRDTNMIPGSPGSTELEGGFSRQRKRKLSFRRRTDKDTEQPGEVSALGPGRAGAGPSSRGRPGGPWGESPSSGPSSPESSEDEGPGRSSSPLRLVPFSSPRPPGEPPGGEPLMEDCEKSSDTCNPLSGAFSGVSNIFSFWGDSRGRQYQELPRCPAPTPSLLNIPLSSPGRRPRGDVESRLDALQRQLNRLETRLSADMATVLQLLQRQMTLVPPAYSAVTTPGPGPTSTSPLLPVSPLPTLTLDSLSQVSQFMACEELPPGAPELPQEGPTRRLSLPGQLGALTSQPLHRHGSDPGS

[5] = Cytotoxicity against human HEK293 cells assessed as reduction in cell viability at 10 uM incubated for 24 hrs by Cell-Titer Glo luminescence assay; assay type: toxicity, cell-based; settings: read-out: INH
[6] = Selectivity index, ratio of CC50 for cytotoxicity against human THP-1 cells to IC50 for anti-leishmanial activity against promastigote stage of Leishmania infantum MHOM/MA/67/ITMAP-263; assay type: toxicity, cell-based; settings: read-out: Ratio CC50/IC50
Leishmania infantum [7] = assay: Anti-leishmanial activity against promastigote stage of Leishmania infantum MHOM/MA/67/ITMAP-263 assessed as inhibition of parasite growth incubated for 72 hrs by resazurin-dye based assay; assay type: functional, organism-based; settings: MHOM/MA/67/ITMAP-263, 72 h
Leishmania infantum [8] = assay: Anti-leishmanial activity against luciferase expressing intracellular amastigote stage of Leishmania infantum MHOM/MA/67/ITMAP-263 infected in human THP-1 cells assessed as inhibition of parasite growth at 10 uM incubated for 72 hrs by Steady-Glo luciferase assay; assay type: functional; settings: MHOM/MA/67/ITMAP-263, THP-1

Structure (SMILES)	CC50 at 72 h [1] [µM]	inhibition at 10 min, 10 µM (CYP3A4) [%]	selectivity ratio [2]	cytotoxicity at 24 h, 10 µM [3] [%]	IC50 (Trypanosoma brucei) [µM]	inhibition at 10 µM (Leishmania infantum [4]) [%]	inhibition at 2 h, 10 µM (hERG (KCNH2)) [%]	cytotoxicity at 24 h, 10 µM [5] [%]	selectivity ratio [6]	IC50 (Leishmania infantum [7]) [µM]	inhibition at 10 µM (Leishmania infantum [8]) [%]
COc1cc(/C=N/Nc2ncnc3c(Nc4ccc(F)c(Cl)c4)ncnc23)cc(OC)c1O	> 100	32	> 17	5	5.83	< 0	38	11			
Oc1cc(/C=N/Nc2ncnc3c(Nc4ccc(Cl)c(C(F)(F)F)c4)ncnc23)cc(O)c1O	> 10	11	> 4	-4	2.76	< 0	49	-2			
COc1cc(/C=N/Nc2ncnc3c(Nc4ccc(OC(F)(F)F)cc4)ncnc23)cc(OC)c1OC	> 10	11	> 26	6	0.39	24	21	2			
Oc1ccc(/C=N/Nc2ncnc3c(Nc4ccc(Cl)c(C(F)(F)F)c4)ncnc23)cc1O	> 10	0	> 23	15	0.43	5	29	3			
COc1cc(/C=N/Nc2ncnc3c(Nc4ccc(Cl)c(C(F)(F)F)c4)ncnc23)cc(OC)c1OC	> 10	20	> 6	-7	1.76	22	24	-2			
COc1cc(/C=N/Nc2ncnc3c(Nc4ccc(OC(F)(F)F)cc4)ncnc23)ccc1O	> 10	0	> 54	38	0.18	50	64	19	1	8.75	< 0
COc1cc(/C=N/Nc2ncnc3c(Nc4ccc(F)c(Cl)c4)ncnc23)ccc1O	> 50	24	> 196	2	0.26	19	7	13			
Oc1cc(/C=N/Nc2ncnc3c(Nc4ccc(OC(F)(F)F)cc4)ncnc23)cc(O)c1O	> 10	21	> 64	9	0.16	5	30	7			
Oc1ccc(/C=N/Nc2ncnc3c(Nc4ccc(F)c(Cl)c4)ncnc23)cc1O	> 50	25	> 85	-6	0.59	13	7	-6			
COc1ccc(/C=N/Nc2ncnc3c(Nc4ccc(OC(F)(F)F)cc4)ncnc23)cc1O	> 10	0	> 39	38	0.26	60	61	10	4	2.54	< 0
N=C(N)c1ccc(OCCCCCOc2ccc(C(=N)N)cc2)cc1 [PENTAMIDINE]	< 10				0.003						
COc1ccc(/C=N/Nc2ncnc3c(Nc4ccc(Cl)c(C(F)(F)F)c4)ncnc23)cc1O	> 10	27	> 7	3	1.44	12	7	-3			
COc1cc(/C=N/Nc2ncnc3c(Nc4ccc(F)c(Cl)c4)ncnc23)cc(OC)c1OC	> 10	30	> 1	14	8.72	20	5	14			
Oc1ccc(/C=N/Nc2ncnc3c(Nc4ccc(OC(F)(F)F)cc4)ncnc23)cc1O	> 10	0	> 29	18	0.35	52	21	24	1	14.9	< 0
COc1ccc(/C=N/Nc2ncnc3c(Nc4ccc(F)c(Cl)c4)ncnc23)cc1O	> 10	20	> 2	-9	5.81	13	-7	-3			
COc1cccc(Nc2ncnc3c(N/N=C/c4cc(O)c(O)c(O)c4)ncnc23)c1	> 100	0	> 37	-6	2.71	95	34	8	> 221	0.45	4
NNc1ncnc2c(Nc3ccc(OC(F)(F)F)cc3)ncnc12	> 10	20	> 55	17	0.18	18	30	17			
Oc1cc(/C=N/Nc2ncnc3c(Nc4ccc(F)c(Cl)c4)ncnc23)cc(O)c1O	> 10	0	> 26	27	0.38	0	62	24			
COc1cc(/C=N/Nc2ncnc3c(Nc4ccc(Cl)c(C(F)(F)F)c4)ncnc23)cc(OC)c1O	> 10	19	> 2	-2	5.63	9	3	-1			

From ChEMBL document CHEMBL5614450, “SAR Study of 4,8-Disubstituted Pyrimido[5,4-d]pyrimidines Exhibiting Antitrypanosomal and Antileishmanial Activity” (ACS Med Chem Lett, 2024)
